The record followed here is patent publication US20250034201A1, “PRODRUGS OF GANAXOLONE” (priority 2022, published 2025).

This data set is described as follows: in vitro. The class given is in vitro ADME, human. As to the method:
For several compounds only human liver microsomal stability was tested. […] The microsomal assays were carried out with and without the addition of NADPH at a final concentration of 1 mM. For negative control samples, NADPH reagent was not added. […] Note that compounds undergo only Phase I metabolism in liver microsomes.

[1] abbreviates: human liver microsomes 0.5 mg/mL, with NADPH, compound 0.5 μM, 37° C., read-out: Human Liver Microsomal Stability t1/2.
Setting [2] is: human liver microsomes 0.5 mg/mL, with NADPH, compound 0.5 μM, read-out: Human Liver Microsomal Stability CLint (uL/min/mg liver) (converted).
The mark [3] stands for this setting: human liver microsomes, no NADPH, compound 0.5 μM.

Read-outs that look alike come from different tables or passages of the source.

`COC(=O)[C@@H](NCC(=O)O[C@]1(C)CC[C@@]2(C)[C@@H](CC[C@@H]3[C@@H]2CC[C@]2(C)[C@@H](C(C)=O)CC[C@@H]32)C1)C(C)C` [Compound 108]: the “Comments: production of GNX (ganaxolone) in human liver microsomes” value (“Comments: production of GNX (ganaxolone)” for short) (human liver microsomes) is on record as “GNX not produced in human”. The half-life under setting [1] was 12.2 min. Besides, the microsomal CLint under setting [2] is 114 µL/min/mg. In addition, the “Human Liver Microsomal Stability no NADPH, % remain 1 h” value under setting [3] is 98%.
For the molecule `COC(=O)CNCC(=O)O[C@]1(C)CC[C@@]2(C)[C@@H](CC[C@@H]3[C@@H]2CC[C@]2(C)[C@@H](C(C)=O)CC[C@@H]32)C1` [Compound 110], the “Comments: production of GNX (ganaxolone)” value (human liver microsomes) is listed as “In human GNX not produced”. For the same molecule, under setting [1], the half-life was 4.15 min. The microsomal CLint under setting [2] is 344 µL/min/mg. The “Human Liver Microsomal Stability no NADPH, % remain 1 h” value under setting [3] worked out at 1.5%.
As for `CC(=O)[C@H]1CC[C@H]2[C@@H]3CC[C@H]4C[C@](C)(OC(=O)CNC(=O)CN5CCOCC5)CC[C@]4(C)[C@H]3CC[C@]12C` [Compound 112], the “Comments: production of GNX (ganaxolone)” value (human liver microsomes) is recorded as “In human no GNX produced”. The half-life under setting [1] came out at 46.7 min. Moreover, under setting [2], the microsomal CLint was 29.6 µL/min/mg. In addition, the “Human Liver Microsomal Stability no NADPH, % remain 1 h” value under setting [3] stood at 98.6%.
On to `CNCC(=O)O[C@]1(C)CC[C@@]2(C)[C@@H](CC[C@@H]3[C@@H]2CC[C@]2(C)[C@@H](C(C)=O)CC[C@@H]32)C1` [Compound 114], for which the half-life under setting [1] was determined as 277 min. In addition, the microsomal CLint under setting [2] was 5 µL/min/mg. Further, under setting [3], the “Human Liver Microsomal Stability no NADPH, % remain 1 h” value worked out at 99.5%.
`CC(=O)[C@H]1CC[C@H]2[C@@H]3CC[C@H]4C[C@](C)(OC(=O)CN(C)C(=O)CN5CCOCC5)CC[C@]4(C)[C@H]3CC[C@]12C` [Compound 115]: the “Comments: production of GNX (ganaxolone)” value (human liver microsomes) is “In human no GNX produced”. Moreover, the half-life under setting [1] was 13.8 min. Also, the microsomal CLint under setting [2] is 100 µL/min/mg. Further, under setting [3], the “Human Liver Microsomal Stability no NADPH, % remain 1 h” value is given as 99%.
On to `CC(=O)[C@H]1CC[C@H]2[C@@H]3CC[C@H]4C[C@](C)(OC(=O)CNC(=O)CNC(=O)[C@@H](N)C(C)C)CC[C@]4(C)[C@H]3CC[C@]12C` [Compound 122], for which the “Comments: production of GNX (ganaxolone)” value (human liver microsomes) is given as “In human no GNX produced”. Under setting [1], the half-life came out at 345 min. Under setting [2], the microsomal CLint was 4.02 µL/min/mg. Under setting [3], the “Human Liver Microsomal Stability no NADPH, % remain 1 h” value stood at 99%.
Take `CC(=O)[C@H]1CC[C@H]2[C@@H]3CC[C@H]4C[C@](C)(OC(=O)CNCC(=O)O)CC[C@]4(C)[C@H]3CC[C@]12C` [Compound 124]: the “Comments: production of GNX (ganaxolone)” value (human liver microsomes) is recorded as “In human small amount of GNX produced”. For the same molecule, the half-life under setting [1] is 532 min. In addition, the microsomal CLint under setting [2] is 2.61 µL/min/mg. Further, the “Human Liver Microsomal Stability no NADPH, % remain 1 h” value under setting [3] is recorded as 99%.
Take `COC(=O)C(C)(C)NCC(=O)O[C@]1(C)CC[C@@]2(C)[C@@H](CC[C@@H]3[C@@H]2CC[C@]2(C)[C@@H](C(C)=O)CC[C@@H]32)C1` [Compound 125]: the half-life under setting [1] is 3.9 min. Also, under setting [2], the microsomal CLint is 354 µL/min/mg. Besides, the “Human Liver Microsomal Stability no NADPH, % remain 1 h” value under setting [3] is on record as 1%.
As for `CC(=O)[C@H]1CC[C@H]2[C@@H]3CC[C@H]4C[C@](C)(OC(=O)CN5CCC[C@H]5C(=O)OCc5ccccc5)CC[C@]4(C)[C@H]3CC[C@]12C` [Compound 128], the “Comments: production of GNX (ganaxolone)” value (human liver microsomes) is recorded as “In human no GNX produced”. The half-life under setting [1] was 9 min. Besides, under setting [2], the microsomal CLint is 153 µL/min/mg. In addition, the “Human Liver Microsomal Stability no NADPH, % remain 1 h” value under setting [3] stood at 20%.
With `CC(=O)[C@H]1CC[C@H]2[C@@H]3CC[C@H]4C[C@](C)(OC(=O)CN[C@@H](C)C(=O)O)CC[C@]4(C)[C@H]3CC[C@]12C` [Compound 131], the “Comments: production of GNX (ganaxolone)” value (human liver microsomes) is “In human no GNX produced”. The half-life under setting [1] came to 207 min. Also, the microsomal CLint under setting [2] was 6.7 µL/min/mg. Also, the “Human Liver Microsomal Stability no NADPH, % remain 1 h” value under setting [3] turned out to be 82%.
Take `CC(=O)[C@H]1CC[C@H]2[C@@H]3CC[C@H]4C[C@](C)(OC(=O)CNC(C)(C)CO)CC[C@]4(C)[C@H]3CC[C@]12C` [Compound 132]: where the note is “human, microsomes”, the half-life came out at 11.7 min; the microsomal CLint was found to be 118 µL/min/mg; the “Human Liver Microsomal Stability no NADPH, % remain 1 h” value is given as 1%.
Regarding `CC(=O)[C@H]1CC[C@H]2[C@@H]3CC[C@H]4C[C@](C)(OC(=O)CNC(C)(C)COC(=O)C(C)C)CC[C@]4(C)[C@H]3CC[C@]12C` [Compound 135], under “human, microsomes”, the half-life was 3.6 min; the microsomal CLint stood at 385 µL/min/mg; the “Human Liver Microsomal Stability no NADPH, % remain 1 h” value is given as 1.3%.
Consider `CC(=O)[C@H]1CC[C@H]2[C@@H]3CC[C@H]4C[C@](C)(OC(=O)CNC(C)(C)COC(=O)CN5CCOCC5)CC[C@]4(C)[C@H]3CC[C@]12C` [Compound 136], for which the half-life under setting [1] came to 3 min. For the same molecule, under setting [2], the microsomal CLint is 457 µL/min/mg. In addition, the “Human Liver Microsomal Stability no NADPH, % remain 1 h” value under setting [3] is on record as 0.5%.
Turning to `CC(=O)[C@H]1CC[C@H]2[C@@H]3CC[C@H]4C[C@](C)(OC(=O)CN5CCC[C@H]5C(=O)O)CC[C@]4(C)[C@H]3CC[C@]12C` [Compound 137], the “Comments: production of GNX (ganaxolone)” value (human liver microsomes) is given as “In human no GNX produced”. Under setting [1], the half-life was determined as 908 min. The microsomal CLint under setting [2] was 1.52 µL/min/mg. In addition, the “Human Liver Microsomal Stability no NADPH, % remain 1 h” value under setting [3] amounted to 95%.
As for `CC(=O)[C@H]1CC[C@H]2[C@@H]3CC[C@H]4C[C@](C)(OC(=O)CNCC(C)(C)N)CC[C@]4(C)[C@H]3CC[C@]12C` [Compound 138], the “Comments: production of GNX (ganaxolone)” value (human liver microsomes) was “In human small amount of GNX produced”. Also, the half-life under setting [1] turned out to be 33.2 min. The microsomal CLint under setting [2] was 41.8 µL/min/mg. Further, the “Human Liver Microsomal Stability no NADPH, % remain 1 h” value under setting [3] was found to be 95.3%.
Turning to `CC(=O)[C@H]1CC[C@H]2[C@@H]3CC[C@H]4C[C@](C)(OC(=O)CNCC(C)(C)O)CC[C@]4(C)[C@H]3CC[C@]12C` [Compound 140], the half-life under setting [1] came out at 39.1 min. Further, under setting [2], the microsomal CLint is 35.5 µL/min/mg. The “Human Liver Microsomal Stability no NADPH, % remain 1 h” value under setting [3] was found to be 99%.
Consider `CC(=O)[C@H]1CC[C@H]2[C@@H]3CC[C@H]4C[C@](C)(OC(=O)CNC(=O)C(C)(C)O)CC[C@]4(C)[C@H]3CC[C@]12C` [Compound 141], for which the “Comments: production of GNX (ganaxolone)” value (human liver microsomes) is given as “In human no GNX produced”. Where the note is “human, microsomes”, the half-life was 38.3 min; the microsomal CLint turned out to be 36.2 µL/min/mg; the “Human Liver Microsomal Stability no NADPH, % remain 1 h” value was 99.7%.
As for `CC(=O)[C@H]1CC[C@H]2[C@@H]3CC[C@H]4C[C@](C)(OC(=O)CN(CCO)CCO)CC[C@]4(C)[C@H]3CC[C@]12C` [Compound 142], for the setting “human, microsomes”, the half-life stood at 32.3 min; the microsomal CLint was 42.9 µL/min/mg; the “Human Liver Microsomal Stability no NADPH, % remain 1 h” value is given as 99%.
On to `CC(=O)[C@H]1CC[C@H]2[C@@H]3CC[C@H]4C[C@](C)(OC(=O)COC(=O)CN(C)C)CC[C@]4(C)[C@H]3CC[C@]12C` [Compound 202], for which, under setting [1], the half-life stood at 2.62 min. Besides, under setting [2], the microsomal CLint is 529 µL/min/mg. Besides, the “Human Liver Microsomal Stability no NADPH, % remain 1 h” value under setting [3] is reported as 1.85%.
